The results in this text go back to paper PMC6379706, “Characterization of the interactions of chemically-modified therapeutic nucleic acids with plasma proteins using a fluorescence polarization assay” (Nucleic Acids Research, 2018).

A word on the Kd: it is the constant that tells how readily two partners part at equilibrium. Read a high Kd as a looser complex.

The target in experiment [1] is T1, transferrin (Homo sapiens, UniProt P02787).
T1 construct: gene TF; purchased from Sigma Aldrich
The experiment in a line: fluorescence polarization, direct titration of dye with protein. The format is binding. (Fluorescence polarisation rises when a labelled molecule tumbles more slowly, as on binding a larger partner.)

Experiment [2] has as its target T2, human serum albumin (Homo sapiens, UniProt P02768).
T2 construct: gene ALB; purchased human albumin, EMD Millipore (Calbiochem)
The description is as above. The format is binding.

T1 sequence (P02787 20-698): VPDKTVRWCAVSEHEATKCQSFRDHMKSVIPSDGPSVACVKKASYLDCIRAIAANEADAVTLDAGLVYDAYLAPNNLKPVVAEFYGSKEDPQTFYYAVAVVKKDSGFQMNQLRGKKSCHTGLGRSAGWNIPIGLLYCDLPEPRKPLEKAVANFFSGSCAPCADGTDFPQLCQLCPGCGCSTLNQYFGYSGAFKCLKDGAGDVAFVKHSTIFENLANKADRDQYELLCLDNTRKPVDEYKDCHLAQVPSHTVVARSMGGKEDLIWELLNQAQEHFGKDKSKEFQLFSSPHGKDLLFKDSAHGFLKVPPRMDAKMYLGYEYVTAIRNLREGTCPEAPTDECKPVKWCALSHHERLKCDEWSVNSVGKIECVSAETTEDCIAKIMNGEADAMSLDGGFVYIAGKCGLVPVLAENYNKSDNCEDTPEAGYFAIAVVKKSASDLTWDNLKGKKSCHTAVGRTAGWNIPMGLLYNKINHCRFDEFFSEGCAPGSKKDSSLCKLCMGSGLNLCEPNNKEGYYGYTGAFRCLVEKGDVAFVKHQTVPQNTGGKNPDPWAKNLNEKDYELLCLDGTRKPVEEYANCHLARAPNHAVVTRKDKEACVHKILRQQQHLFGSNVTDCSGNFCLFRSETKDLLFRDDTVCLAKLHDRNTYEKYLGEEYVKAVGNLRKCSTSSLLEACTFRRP
T2 sequence (P02768 25-609): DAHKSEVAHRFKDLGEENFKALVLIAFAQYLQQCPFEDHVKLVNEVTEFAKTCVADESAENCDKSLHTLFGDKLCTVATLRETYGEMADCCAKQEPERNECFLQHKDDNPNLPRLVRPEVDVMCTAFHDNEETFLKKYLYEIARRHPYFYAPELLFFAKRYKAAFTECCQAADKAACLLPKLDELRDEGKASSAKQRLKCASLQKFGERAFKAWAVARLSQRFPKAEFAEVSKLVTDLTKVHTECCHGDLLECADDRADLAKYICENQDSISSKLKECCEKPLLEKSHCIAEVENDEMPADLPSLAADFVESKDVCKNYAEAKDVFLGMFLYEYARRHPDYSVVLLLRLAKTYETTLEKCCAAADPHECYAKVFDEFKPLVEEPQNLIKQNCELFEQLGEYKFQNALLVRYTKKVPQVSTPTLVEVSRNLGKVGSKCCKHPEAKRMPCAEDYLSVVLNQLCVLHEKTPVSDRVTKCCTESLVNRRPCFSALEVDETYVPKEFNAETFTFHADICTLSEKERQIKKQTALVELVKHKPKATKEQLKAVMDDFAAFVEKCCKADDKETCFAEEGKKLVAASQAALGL

In the case of `N=c1ccc2c(-c3ccc(C(=O)O)cc3C(=O)O)c3ccc(N)c(S(=O)(=O)O)c3oc-2c1S(=O)(=O)O` [Alexa Fluor 488], the Kd in experiment [1] was 380 µM; in experiment [2] it was 791 µM.
Taken in the same sequence, the figures for `CN1/C(=C/C=C/C=C/C2=[N+](CCCCCC(=O)O)c3ccccc3C2(C)C)C(C)(C)c2ccccc21` [Cy5] were 46.1 µM and 44.8 µM.
Taken in the same sequence, the figures for `O=C(O)c1ccccc1-c1c2ccc(=O)cc-2oc2cc(O)ccc12` [fluorescein] were 502 µM and 138 µM.
In the same order, the values of `CN1/C(=C/C=C/C=C/C2=[N+](CCCCCC(=O)O)c3ccc(S(=O)(=O)O)cc3C2(C)C)C(C)(C)c2cc(S(=O)(=O)O)ccc21` [sCy5] are 2020 µM and 568 µM.
